In patent US20260092085A1, “SYNTHETIC TRIPLEX PEPTIDE NUCLEIC ACID-BASED INHIBITORS FOR CANCER THERAPY” (University of Connecticut, priority 2022, published 2026):

Tests used:
miR-155 = miR-155 gene expression by RT-PCR in SUDHL-2 cells; type: cell-based; details: SUDHL-2, 500 nM, 48 hours
Method: Data represented as mean±standard error mean (SEM). Unpaired two-tailed t-test was used for statistical analysis, **p<0.01. The analysis was performed relative to Scr-γtcPNA-155.
Similarly, 400,000 SUDHL-2 cells were seeded in a 12 well plate and treated with 500 nM Scr gamma tcPNA-155, PNA-155 and gamma tcPNA-155 for 48 hrs in an incubator (37° C. and 5% CO2). The RNA was extracted and the samples for gene expression were prepared in the same manner as described above.

U2932 cells [1] = assay: Annexin V-based apoptosis assay in U2932 cells; type: cell-based, human; details: 48 hours
Method: Quantification of apoptotic cells by flow cytometry after treating U2932 cells with PBS as a control and 500 nM Scr-γtcPNA-155, PNA-155, γPNA-155 and γtcPNA-155 for 48 hours. The apoptotic cells and necrotic were stained using Phycoerythrin (PE) Annexin V and 7-Amino-Actinomycin (7-AAD) respectively. The % apoptotic cells after treatment was compared to the PBS treated cells, by setting the same threshold. Bar graph of % apoptotic cells (n=3 technical triplicate), data represented as mean±standard error mean (SEM), *p<0.05, **p<0.01, ***p<0.001, unpaired two-tailed t-test was used for statistical analysis. Representative dot plots of Scr-γtcPNA-155 and γtcPNA-155 treated U2932 cells. The experiment was repeated three times and in triplicate. One out of three representative experiments are shown.
The apoptotic cells and necrotic were stained using Phycoerythrin (PE) Annexin V and 7-Amino-Actinomycin (7-AAD) respectively. The % apoptotic cells after treatment was compared to the PBS treated cells, by setting the same threshold. Bar graph of % apoptotic cells (n=3 technical triplicate), data represented as mean±standard error mean (SEM), **p<0.01, unpaired two-tailed t-test was used for statistical analysis. Representative dot plots of PBS treated and γtcPNA-155 treated U2932 cells. The experiment was repeated three times and in triplicate. One out of three representative experiments is shown.
Apoptosis Assay: 400,000 U2932 cells were seeded in a 12 well plate. The cells were treated with 500 nM PNA-155, γPNA-155, γtcPNA-155, Scr-γ tcPNA-155 or were PBS treated (control) for 48 hrs in an incubator (37° C., 5% CO2). The cells were washed with PBS twice. The cells were centrifuged at 2000 rpm for 4 mins at 4° C. The cell pellet was suspended in IX Annexin V binding buffer. The cells were then counted and 100 μL of cell suspension (containing 2.5×10^5 cells) was passed through the FACS tube. […] 400 μL of IX Annexin V binding buffer was added to the cells and the cells were then analyzed using LSR Fortessa™ X-20 Cell analyzer as indicated above. […]

U2932 cells [2] = assay: Cell viability by trypan blue assay, U2932; type: cell-based, human
Method: Cell viability was performed using trypan blue-based assay (n=3 technical triplicate), data represented as mean±(SEM), * represents the statistical analysis were performed relative to Scr-γtcPNA-155 and ♦ represent analysis performed relative to PNA-155. *p<0.05, **p<0.01, ***p<0.001 and ****p<0.0001, ♦p<0.05, ♦♦p<0.01, unpaired two-tailed t-test was used for statistical analysis. The experiment was repeated three times and in triplicate.
Cell viability was performed using trypan blue-based assay (n=3), data represented as mean±standard error mean (SEM), *p<0.05, **p<0.01. Unpaired two-tailed t-test was used for statistical analysis.
Cell viability was performed using trypan blue-based assay (n=3), data represented as mean±standard error mean (SEM).
Cell viability by trypan blue assay: Diffused large B cell lymphoma (DLBCL) cell lines like SUDHL-2 (ATCC® CRL-2956™) and SUDHL-5 (ATCC® CRL-2958™) cells were purchased from ATCC (Virginia, USA). The cells were regularly tested for Mycoplasma contamination using MycoAlert™ Mycoplasma detection kit (Lonza). All the cells used in the experiment were passaged less than 8 times. 10,000 U2932, SUDHL-5, or SUDHL-2 cells were plated in a 96 well plate. The cells were treated with different doses (500 nM, 1000 nM, 2000 nM and 4000 nM) of PNA-155, gamma tcPNA-155 or Scr-γtcPNA-155 for 48 hrs in an incubator (37° C. and 5% CO2). The dead cells were marked with trypan blue. Further counting was performed using an automated cell counter (Bio-rad).

Substance: γtcPNA-155: serine gamma tail-clamp anti-miR-155 PNA, RR-TJJJJ-OOO-ACCCCTATCACGATTAGCATTAA-RR, SEQ ID NO: 3 (all peptide nucleic acid (PNA); serine gamma PNA, tail-clamp TJJJJ via linkers, Arg-Arg at both ends)
- decrease in miR-155 gene expression (miR-155): 63%
- apoptosis by Annexin-V FITC confocal imaging (U2932 cells [1]; U2932, 500 nM): higher apoptosis
- apoptosis by annexin V flow cytometry (U2932 cells [1]; U2932, 500 nM, versus PNA-155 and γPNA-155 treated group): increased apoptosis
- increase in apoptosis in comparison to control (U2932 cells [1]; U2932, 10 uM): 4.5 fold
- reduction in cell viability at 500 nM (U2932 cells [2]; U2932, 500 nM, compared to PNA-155 treated group): significant reduction in cell viability
- decrease in cell viability (U2932 cells [2]; U2932, 4UM, 48 hours): ~80%
